Where two headings read alike, the source gives them in different places.
What was measured:
[1] = In vitro release of lidocaine from silicone tube devices (diffusion through wall / apertures); type: physicochemical; settings: in vitro in water at about 37° C.; tubes with or without apertures
Method: A study was performed to determine the feasibility of delivering drug through the wall of a drug reservoir via diffusion. […] Some of the devices included an aperture formed through the tube wall, the aperture having a diameter of 150 μm. […] The devices were tested in vitro in water at about 37° C. […] Another study was performed to investigate the feasibility of delivering drug from a device through both a wall of a drug reservoir and from an aperture in the wall of the drug reservoir. Devices were formed form silicone tubes having a length of about 3 cm. […] The devices were tested in vitro in water at about 37° C.

IC = settings: cited from earlier work

SMILES	release of drug from silicone tube [1]	mean pain score (IC; after second instillation)	mean pain score (IC; immediately following treatment (prior to treatment 6.0))	duration of effect (IC; single instillation)	mean pain score (IC; the next day)
CCN(CC)CC(=O)Nc1c(C)cccc1C [lidocaine base]	can be released from a silicone tube without any apertures	–	–	–	–
CCN(CC)CC(=O)Nc1c(C)cccc1C [lidocaine]	–	1.2	1.8	approximately 24 hours	3.7

From patent US10123981B2, “Methods for treatment of pelvic pain and/or comorbid conditions” (priority 2012, dated 2018)
